# Counter-ions that a name gives are not always drawn.
# Target: rhesus (Macacca Mulatta) H3 receptor (Macaca mulatta, UniProt Q865E1)
# Experiment: Rhesus H3 radioligand binding assay ([3H]-Methylhistamine, WGA SPA)
# Set-up: species or system rhesus monkey (Macacca Mulatta)
# Conditions: displacement of [3H]-Methylhistamine (2 nM) from rhesus H3 receptor membranes; Cheng-Prusoff
# Procedure: (Genbank #AY231164). Stably transfected cultures were amplified in tissue culture flasks by standard tissue culture methods and induced to express rhesus H3 by exposure to 500 ng/ml tetracycline (Cellgro) for 24 hours. After induction, cells were dissociated from flasks utilizing Cell Stripper (Cellgro). Cells were centrifuged (1K×g, 5 min) and pellet frozen in an ethanol-dry ice bath to disrupt cell membranes. Frozen cell pellet was re-suspended in 5 mM HEPES (pH 7.4, Invitrogen) at 10 ml/1000 cm2 of harvested cells. The cell suspension was drawn through an 18 gauge needle (2-3×) followed by a 23 gauge needle (2-3×) to further disrupt cell membranes. The cell suspension was centrifuged (40K×g, 30 min). Cell membrane pellet was re-suspended in 5 mM HEPES (pH 7.4, Invitrogen) at a final protein concentration of 10 mg/ml. Rhesus H3 membranes were stored under liquid nitrogen prior to use in [3H]-Methylhistamine and GTPγS radioligand binding assays.
# Rhesus H3 radioligand binding assay was performed using rhesus H3 receptor membranes (prepared as described above), [3H]-Methylhistamine (Perkin Elmer) and WGA SPA beads (wheat germ agglutinin scintillation proximity assay) beads (Amersham). The assay was performed in 96-well Opti-Plates (Packard). Each reaction contained 50 μl rhesus H3 membranes (20-30 μg total protein), 50 μl WGA SPA beads (0.1 μg) and 50 μl of 83 Ci/mmol [^3H]-Methylhistamine (final concentration 2 nM) and 50 μl of tested compound. The compounds of this invention and/or vehicle were diluted with binding buffer from 10 mM DMSO stocks. Assay plates were sealed with TopSeal (Perkin Elmer) and mixed on shaker (25° C., 1 hour). Assay plates were read on TopCount scintillation counter (Packard). Results were analyzed by Hill transformation and Ki values were determined by Cheng-Prusoff equation.
# Sequence of rhesus (Macacca Mulatta) H3 receptor (Q865E1 1-445): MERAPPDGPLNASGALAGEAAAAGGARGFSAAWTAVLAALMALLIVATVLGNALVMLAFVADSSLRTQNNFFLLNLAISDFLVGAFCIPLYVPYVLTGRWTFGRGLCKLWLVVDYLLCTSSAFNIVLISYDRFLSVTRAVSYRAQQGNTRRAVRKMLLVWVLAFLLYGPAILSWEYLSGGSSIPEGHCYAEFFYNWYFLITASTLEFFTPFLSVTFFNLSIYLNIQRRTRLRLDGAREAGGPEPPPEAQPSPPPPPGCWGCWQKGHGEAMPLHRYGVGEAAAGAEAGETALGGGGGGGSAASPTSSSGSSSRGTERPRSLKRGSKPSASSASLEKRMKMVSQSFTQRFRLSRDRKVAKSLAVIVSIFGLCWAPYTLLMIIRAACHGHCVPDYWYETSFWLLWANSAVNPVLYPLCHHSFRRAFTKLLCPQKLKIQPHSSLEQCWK
row,SMILES,Ki
1,"CC(C)(C)OC(=O)N1CCC2(CC1)CCN(c1ccc([C@H]3CC[C@H](N4CCC4)CC3)cc1F)C2=O [Example 15, 2-[4-(4-Azetidin-1-yl-cyclohexyl)-2-fluoro-phenyl]-1-oxo-2,8-diaza-spiro[4.5]decane-8-carboxylic acid tert-butyl ester]",220 nM
2,"CC(=O)N1CCC(C(=O)Nc2ccc([C@H]3CCC(N4CCC[C@@H]4C)C3)cc2)CC1 (stereo partly drawn) [Example 22, 1-Acetyl-piperidine-4-carboxylic acid {4-[(S)-3-((S)-2-methyl-pyrrolidin-1-yl)-cyclopentyl]-phenyl}-amide]",118 nM
3,"C[C@@H]1CCCN1[C@H]1CC[C@H](c2ccc(N3CCC4(CCNCC4)C3=O)c(F)c2)CC1 [Example 18, 2-{2-Fluoro-4-[4-((R)-2-methyl-pyrrolidin-1-yl)-cyclohexyl]-phenyl}-2,8-diaza-spiro[4.5]decan-1-one hydrochloride]",11.3 nM
4,"CC1CCCN1C1CC[C@H](c2ccc(N3CCCC4(CCNCC4)C3=O)cc2)C1 (some centres unmarked) [Example 8, 2-{4-[3-(2-Methyl-pyrrolidin-1-yl)-cyclopentyl]-phenyl}-2,9-diaza-spiro[5.5]undecan-1-one hydrochloride]",6.07 nM
5,"C[C@H]1CCCN1C1CC=C(c2ccc(NC(=O)OCc3ccccc3)c(F)c2)CC1 (stereo partly drawn) [Example 21, {2-Fluoro-4-[4-((S)-2-methyl-pyrrolidin-1-yl)-cyclohex-1-enyl]-phenyl}-carbamic acid benzyl ester]",6.88 nM
6,"Cc1ccc(F)cc1C(=O)Nc1ccc([C@H]2CCC(N3CCC[C@@H]3C)C2)cc1 (stereo partly drawn) [Example 25, 5-Fluoro-2-methyl-N-{4-[(S)-3-((S)-2-methyl-pyrrolidin-1-yl)-cyclopentyl]-phenyl}-benzamide]",45.7 nM
7,"CC1CCCN1C1CC[C@H](c2ccc(N3CCC4(CCC(O)CC4)C3=O)cc2)C1 (some centres unmarked) [Example 4, 8-Hydroxy-2-{4-[3-(2-methyl-pyrrolidin-1-yl)-cyclopentyl]-phenyl}-2-aza-spiro[4.5]decan-1-one]",75.2 nM
8,"CC1CCCN1C1CC[C@H](c2ccc(N3CCCC4(CCN(C(=O)OC(C)(C)C)CC4)C3=O)cc2)C1 (some centres unmarked) [Example 3, 2-{4-[3-(2-Methyl-pyrrolidin-1-yl)-cyclopentyl]-phenyl}-1-oxo-2,9-diaza-spiro[5.5]undecane-9-carboxylic acid tert-butyl ester]",17.9 nM
9,"CC1CCCN1C1CC[C@H](c2ccc(N3CCCC4(CCCC4)C3=O)cc2)C1 (some centres unmarked) [Example 7, 7-{4-[3-(2-Methyl-pyrrolidin-1-yl)-cyclopentyl]-phenyl}-7-aza-spiro[4.5]decan-6-one]",27.5 nM
10,"C[C@H]1CCCN1[C@H]1CC[C@H](c2ccc(N3CCC4(CCNCC4)C3=O)c(F)c2)CC1 [Example 17, 2-{2-Fluoro-4-[4-((S)-2-methyl-pyrrolidin-1-yl)-cyclohexyl]-phenyl}-2,8-diaza-spiro[4.5]decan-1-one hydrochloride]",84.3 nM
11,"C[C@H]1CCCN1[C@H]1CC[C@H](c2ccc(N3CCC4(CCOCC4)C3=O)cc2)CC1 [Example 12, 2-{4-[4-((S)-2-Methyl-pyrrolidin-1-yl)-cyclohexyl]-phenyl}-8-oxa-2-aza-spiro[4.5]decan-1-one]",6.1 nM
12,"O=C1N(c2ccc([C@H]3CC[C@H](N4CCCC4)CC3)cc2F)CCC12CCNCC2 [Example 20, 2-[2-Fluoro-4-(4-pyrrolidin-1-yl-cyclohexyl)-phenyl]-2,8-diaza-spiro[4.5]decan-1-one hydrochloride]",137 nM
13,"CC(C)(C)OC(=O)N1CCC2(CC1)CCN(c1ccc([C@H]3CC[C@H](N4CCCC4)CC3)cc1F)C2=O [Example 13, 2-[2-Fluoro-4-(4-pyrrolidin-1-yl-cyclohexyl)-phenyl]-1-oxo-2,8-diaza-spiro[4.5]decane-8-carboxylic acid tert-butyl ester]",379 nM
14,"C[C@H]1CCCN1C1CC[C@H](c2ccc(N3CCC4(CCCCC4)C3=O)cc2)C1 (stereo partly drawn) [Example 2, 2-{4-[(S)-3-((S)-2-Methyl-pyrrolidin-1-yl)-cyclopentyl]-phenyl}-2-aza-spiro[4.5]decan-1-one]",12.8 nM
15,"C[C@H]1CCCN1C1CC[C@H](c2ccc(N3CCC4(CCOCC4)C3=O)cc2)C1 (stereo partly drawn) [Example 1, 2-{4-[(S)-3-((S)-2-Methyl-pyrrolidin-1-yl)-cyclopentyl]-phenyl}-8-oxa-2-aza-spiro[4.5]decan-1-one]",11.9 nM
16,"O=C1N(c2ccc([C@H]3CC[C@H](N4CCCC4)CC3)cc2)CCC12CCOCC2 [Example 9, 2-[4-(4-Pyrrolidin-1-yl-cyclohexyl)-phenyl]-8-oxa-2-aza-spiro[4.5]decan-1-one]",112 nM
17,"C[C@@H]1CCCN1[C@H]1CC[C@H](c2ccc(N3CCC4(CCOCC4)C3=O)cc2)CC1 [Example 10, 2-{4-[4-((R)-2-Methyl-pyrrolidin-1-yl)-cyclohexyl]-phenyl}-8-oxa-2-aza-spiro[4.5]decan-1-one]",35.3 nM
18,"CC1CCCN1C1CC[C@H](c2ccc(N3CCC4(CCN(C(=O)OC(C)(C)C)CC4)C3=O)cc2)C1 (some centres unmarked) [Example 6, 2-{4-[3-(2-Methyl-pyrrolidin-1-yl)-cyclopentyl]-phenyl}-1-oxo-2,8-diaza-spiro[4.5]decane-8-carboxylic acid tert-butyl ester]",26.8 nM
19,"Cc1noc(C)c1C(=O)Nc1ccc([C@H]2CCC(N3CCC[C@@H]3C)C2)cc1 (stereo partly drawn) [Example 26, 3,5-Dimethyl-isoxazole-4-carboxylic acid {4-[(S)-3-((S)-2-methyl-pyrrolidin-1-yl)-cyclopentyl]-phenyl}-amide]",6.01 nM
20,"C[C@H]1CCCCN1[C@H]1CC[C@H](c2ccc(N3CCC4(CCOCC4)C3=O)cc2)CC1 [Example 11, 2-{4-[4-((S)-2-Methyl-piperidin-1-yl)-cyclohexyl]-phenyl}-8-oxa-2-aza-spiro[4.5]decan-1-one]",39.4 nM

# Next, values leading:
row,Ki,SMILES
1,98.7 nM,"Cc1ccc(C(=O)Nc2ccc([C@H]3CCC(N4CCC[C@@H]4C)C3)cc2)cc1 (stereo partly drawn) [Example 34, 4-Methyl-N-{4-[(S)-3-((S)-2-methyl-pyrrolidin-1-yl)-cyclopentyl]-phenyl}-benzamide]"
2,33.7 nM,"C[C@H]1CCCN1C1CC[C@H](c2ccc(NC(=O)C3CCOCC3)cc2)C1 (stereo partly drawn) [Example 28, Tetrahydro-pyran-4-carboxylic acid {4-[(S)-3-((S)-2-methyl-pyrrolidin-1-yl)-cyclopentyl]-phenyl}-amide]"
3,34.9 nM,"C[C@H]1CCCN1C1CC[C@H](c2ccc(NC(=O)c3ccc(F)cc3)cc2)C1 (stereo partly drawn) [Example 31, 4-Fluoro-N-{4-[(S)-3-((S)-2-methyl-pyrrolidin-1-yl)-cyclopentyl]-phenyl}-benzamide]"
4,27.4 nM,"C[C@H]1CCCN1C1CC[C@H](c2ccc(NS(=O)(=O)c3ccc(F)c(F)c3)cc2)C1 (stereo partly drawn) [Example 30, 3,4-Difluoro-N-{4-[(S)-3-((S)-2-methyl-pyrrolidin-1-yl)-cyclopentyl]-phenyl}-benzenesulfonamide]"
5,71.4 nM,"C[C@H]1CCCN1C1CC[C@H](c2ccc(NC(=O)Cc3ccccc3)cc2)C1 (stereo partly drawn) [Example 37, N-{4-[(S)-3-((S)-2-Methyl-pyrrolidin-1-yl)-cyclopentyl]-phenyl}-2-phenyl-acetamide]"
6,34 nM,"C[C@H]1CCCN1C1CC[C@H](c2ccc(NS(=O)(=O)C3CC3)cc2)C1 (stereo partly drawn) [Example 27, Cyclopropanesulfonic acid {4-[(S)-3-((S)-2-methyl-pyrrolidin-1-yl)-cyclopentyl]-phenyl}-amide]"
7,136 nM,"C[C@H]1CCCN1C1CC[C@H](c2ccc(NC(=O)c3ccccc3OC(F)(F)F)cc2)C1 (stereo partly drawn) [Example 35, N-{4-[(S)-3-((S)-2-Methyl-pyrrolidin-1-yl)-cyclopentyl]-phenyl}-2-trifluoromethoxy-benzamide]"
8,37.4 nM,"C[C@H]1CCCN1C1CC[C@H](c2ccc(NC(=O)OCc3ccccc3)cc2)C1 (mixture of isomers) [Intermediate (13), {4-[(S)-3-((S)-2-Methyl-pyrrolidin-1-yl)-cyclopentyl]-phenyl}-carbamic acid benzyl ester]"
9,65.5 nM,"C[C@H]1CCCN1C1CC[C@H](c2ccc(NC(=O)c3ccc(Cl)cc3)cc2)C1 (stereo partly drawn) [Example 32, 4-Chloro-N-{4-[(S)-3-((S)-2-methyl-pyrrolidin-1-yl)-cyclopentyl]-phenyl}-benzamide]"
10,32.6 nM,"Cc1ccccc1C(=O)Nc1ccc([C@H]2CCC(N3CCC[C@@H]3C)C2)cc1 (stereo partly drawn) [Example 33, 2-Methyl-N-{4-[(S)-3-((S)-2-methyl-pyrrolidin-1-yl)-cyclopentyl]-phenyl}-benzamide]"
11,65.4 nM,"CC1CCCN1C1CC[C@H](c2ccc(NC(=O)OCc3ccccc3)cc2)C1 (stereo partly drawn) [Intermediate (10), {4-[(S)-3-(2-Methyl-pyrrolidin-1-yl)-cyclopentyl]-phenyl}-carbamic acid benzyl ester]"
12,48.5 nM,"C[C@H]1CCCN1C1CC[C@H](c2ccc(NC(=O)c3ccc(OC(F)(F)F)cc3)cc2)C1 (stereo partly drawn) [Example 36, N-{4-[(S)-3-((S)-2-Methyl-pyrrolidin-1-yl)-cyclopentyl]-phenyl}-4-trifluoromethoxy-benzamide]"

# From US9453023B2, “Substituted phenyl cycloalkyl pyrrolidine (piperidine) spirolactams and amides, preparation and therapeutic use thereof” (SANOFI, priority 2010, dated 2016)
